In data set [1] the test system is C. elegans. The data set can be described thus: C. elegans larval growth assay: heat-killed E. coli plus trace live E. coli, worm volume. The note with it: for worm growth with dietary supplementation: worms fed heat-killed E. coli plus live entA- or entF- mutant E. coli (Ent-deficient food). The data set is classed as in vivo. The text has this:
In one embodiment of the inventive technology, the present inventors created a unique assay to facilitate the identification of microbial metabolites that benefit growth and development of host animals. […] This unique feeding condition was used to search for E. coli mutants that fail to support normal worm growth, potentially due to their inability to provide specific metabolites to benefit host animals.
E. coli Keio collection screen. Preparation of heat-killed (HK) OP50 plates followed the procedure described previously (Qi et al., 2017). Standard overnight culture of E. coli OP50 grown in LB broth was concentrated to 1/10 vol and was then heat-killed in a 75° C. water bath for 90 min. The 150 µl of the HK-OP50 was spread onto one side of NGM plate. For preparation of bacterial mutant assay plates, E. coli Keio (Baba et al., 2006) mutants were grown overnight at 37° C. in LB medium with […] kanamycin. 0.2 uL of the bacterial culture (OD600) were seeded to the other side of HK OP50 plate. About 300 synchronized L1 worms were added to the screen plate, and cultured at 20° C., then scored for worm size at day 3 and day 4. The entire library was used for the primary screen; each bacterial mutant was screened once. For the secondary screen, 200 candidate mutants were screened (3 replicates) to confirm the slow growth phenotype.
Chemical supplementation of culture plates. For chemical supplementation, each chemical was dissolved in water or DMSO to generate a stock. The stock solution was added to HK OP50 and then spotted onto NGM plates. […] For CaEDTA supplementation (Kiang et al., 2014), 50 ul of CaEDTA (50 ug/ul) was spread onto the center of the NGM plates seeded with OP50, then different volume of the FeCl3[175 ug/ul] […] Bacterial growth analyses. Overnight cultures were diluted to a final OD600=0.01 in 200 μL of NGM liquid medium. Bacteria were grown in 96-well plates with shaking in a Synergy2 plate reader (BioTek) at 37° C. for 17 h. The OD600 was recorded at 20 min intervals.
Analysis of larval growth by measuring worm size. Synchronized L1 worms were seeded on the indicated NGM plate and grew to the indicated times. Photos were taken and worms volume in each photo were measured by WormSizer software (Moore et al., 2013).

The subject of data set [2] is C. elegans. The data set can be described thus: Siderophore toxicity test: worm growth and mitochondrial morphology (mtGFP). The data set is classed as in vivo. Conditions: for defects in growth or mitochondrial morphology: solid medium, worms fed wild-type E. coli. The text has this:
FIG. 8. Bacterial enterobactin promotes C. elegans development. […] (8E) The entA- and entF-mutant E. coli strains colonized the host gut as efficiently as the parental wild-type strain. (FIG. 8F) Cartoon diagram of feeding condition, microscope images and bar graph showing that neither pyoverdine nor ferrichrome caused obvious growth defects in worms fed heat-killed food plus wild-type, live E. coli. (FIG. 8G) Fluorescence microscopy of worms containing mtGFP under the same feeding condition as in (FIG. 8F). […] “n” =number of worms scored. Data are represented as mean±SEM. ***P<0.0001.

In data set [3] the test system is C. elegans smf-3/DMT1 mutant. The data set can be described thus: Growth of iron-deficient C. elegans smf-3/DMT1(-) mutant with iron chelator 2,2'-bipyridyl. The data set is classed as in vivo. On the procedure:
FIG. 26. […] All tests were done on a smf-3/DMT1(-) mutant strain in a culture media where an iron chelator (2,2′-bipyridyl) was added to reduce the environmental iron level (FIG. 26A). […] This growth delay was rescued by supplementation with Ent, scored as the percentage of the population at the indicated growth stage. […] The entP,fepA: E. coli mutant cannot synthesize or utilize Enterobactin.
SMF-3/DMT1 is a conserved divalent metal transporter that transports iron into intestinal cells. The smf-3/DMT1 mutant has been established as an iron deficiency model in C. elegans. These mutants have defective iron uptake that results in iron deficiency (Romney et al 2011) and delayed growth under iron-poor growth conditions created by addition of an iron chelator (2,2′-bipyridyl) to the culture media (Raj an et al 2019).
To determine if the Enterobactin supplementation was benefiting the worm directly or benefiting the worm through an E. coli-dependent mechanism, the test was repeated using an E. coli double mutant that cannot synthesize or utilize Ent (entP,fepk).

The next data set has as its system MEL cells. The data set can be described thus: Erythroid differentiation of MEL cells (color change of cell pellets). The data set is classed as cell-based, murine. Conditions: equimolar supplementation. As to the method: FIG. 27. Ferric Enterobactin supplementation benefits differentiation of erythroid progenitor cells (MEL) to red blood cells. (FIG. 27A) MEL cells were grown with the indicated treatments. Cell pellets are shown. (FIG. 27B) Quantification of MEL color change presented as the average intensity of each cell pellet, normalized to the intensity of the control. Error bars are the standard deviation of three technical replicates.
MEL cells are murine erythroid progenitor cells that are arrested at the proerythroblast stage. In the laboratory, these cells are induced to undergo erythroid differentiation to red blood cells by addition of various chemicals (e.g. 2% DMSO) (Friend, 1971). Erythroid differentiation is an iron-dependent process that results in a color change in the differentiated cells. The present inventors tested if addition of Fe-Ent would positively impact the differentiation of wild-type MEL cells to red blood cells.

Data set [4] is described as follows: Stability by NGAL fluorescence assay. The note with it: same concentration and buffers, room temp, light. The data set is classed as physicochemical. An excerpt: FIG. 25. […] Degradation is indicated by increased absorbance. […] Degradation is indicated by increased relative fluorescence. […] For all tests, dilutions were kept at room temp and exposed to light. Error is standard deviation of the mean.

Data set [5] relates to C. elegans. The data set can be described thus: Iron level in live worms by calcein-AM staining (and pftn-2::GFP reporter). The data set is classed as in vivo.
Method: The present inventors employed the commonly used fluorescent cell-permeable dye, calcein AM, of which emission is quenched by iron binding, and applied it to live worms as previously described to estimate the overall iron level in the host.
Live imaging of iron in worms was done as previously described (James et al., 2015). Briefly, worms were collected at different culture conditions, then co-cultured in M9 with 0.05 ug/ML calcein-AM (Invitrogen) for 1 h, then washed 3 times in 1 ml M9. Samples were then mounted for fluorescence microscopy.
For calcein-AM staining, the original images taken with GFP channel were used to measure the intensity. The value of staining intensity was determined by subtracting the background intensity from the calcein-AM stained intestine.

Square brackets hold non-standard residues; d marks the D form. Peptide text beside a SMILES is read from it. Orn(N5-OH,N5-Ac) = CC(=O)N(O)CCC[C@H](N)C(=O)O

Take `O=C(O)c1cccc(O)c1O` [2,3-DHBA, 2,3-dihydroxybenzoic acid]: the “worm growth with dietary supplementation” value in the data set with C. elegans [1] is listed as “rescued worm growth on entA- but not entF-E. coli”.

In the case of pyoverdine, the “mitochondrial morphology (mtGFP)” value in the data set on C. elegans [2] (liquid culture) is on record as “toxic to worms as it damages host mitochondria”. Also, the “defects in growth or mitochondrial morphology” value in the data set with C. elegans [2] is recorded as “no obvious defects”. For the same molecule, in the data set on C. elegans [1], the “worm growth with dietary supplementation” value is “failed to generate a similar impact on worm growth”.

On to `O=C(N[C@H]1COC(=O)[C@@H](NC(=O)c2cccc([O-])c2[O-])COC(=O)[C@@H](NC(=O)c2cccc([O-])c2[O-])COC1=O)c1cccc([O-])c1[O-].[Fe+3]` [Fe-Ent, ferric enterobactin], for which the “growth of smf-3(-) mutants” value in data set [3] (E. coli double mutant that cannot synthesize or utilize Ent) was “independent of E. coli”; in data set [3] (iron chelator 2,2'-bipyridyl in media) it was “faster and to a greater extent than observed for Enterobactin or FeCl3 supplementation alone”. Further, the “MEL differentiation to red blood cells” value in the data set on MEL cells is “increase in MEL differentiation, and this increase was better than supplementation with equimolar FeCl3 alone”. Besides, the “stability of Ent versus Fe-Ent” value in data set [4] was “more stable than Ent alone”.

Regarding hemin, the “worm growth with dietary supplementation” value with C. elegans [1] is recorded as “did not impact animal growth”.

For `[Cl][Fe]([Cl])[Cl]` [FeCl3, ferric chloride, reference compound], the cellular iron level result in the data set with C. elegans [5] (animals fed Ent-deficient food) was “nor raised cellular iron level”. In addition, the “iron level and growth rate defects” value with C. elegans [5] (iron-deficient condition, worms treated with CaEDTA) was “both defects were suppressed”. The worm growth entry with C. elegans [1] (ferric chloride added to live wild-type E. coli, with heat-killed E. coli) is “worm growth defect”. Further, the “worm growth with dietary supplementation” value in the data set on C. elegans [1] is given as “neither suppressed the growth defect”.

With `CC(=O)N([O-])CCC[C@@H]1NC(=O)CNC(=O)CNC(=O)CNC(=O)[C@H](CCCN([O-])C(C)=O)NC(=O)[C@H](CCCN([O-])C(C)=O)NC1=O.[Fe+3]` [ferrichrome] (cyclo(GGG[Orn(N5-OH,N5-Ac)][Orn(N5-OH,N5-Ac)][Orn(N5-OH,N5-Ac)])), the “defects in growth or mitochondrial morphology” value in the data set with C. elegans [2] is “no obvious defects”. In the data set with C. elegans [1], the “worm growth with dietary supplementation” value was “failed to generate a similar impact on worm growth”.

Source of the values: patent US20210187014A1 (The Regents of the University of Colorado, a body corporate, priority 2018, published 2021).
